Results: PubChem BioAssay AID1845195 (Molecular Pharmacology Branch, DTP, NCI, 2023)

Test system: 156681-154-R-J1 tumor spheroid viability
Assay: Anticancer human tumor 156681-154-R-J1 patient-derived melanoma cell line growth inhibition
Settings: spheroids with HUVEC and MSC; for IC50: curve of first compound; for viability, T/C: stronger effect = lower value
Excerpt: Multicellular complex tumor spheroid response to DNA repair inhibitors in combination with DNA-damaging drugs
This study explores the anticancer activities of DNA-damaging drugs and inhibitors of DNA damage repair, both as single agents and in combinations. Complex tumor spheroids comprised of malignant cells, endothelial cells and mesenchymal stem cells served as an in vitro model for human solid tumors. This model system incorporates physiologically relevant features and patient-derived or established malignant cell lines with clinically relevant genetic alterations from many tumor types. Twenty-six patient-derived or established malignant cell lines were evaluated representing sarcoma, melanoma, small cell lung cancer (SCLC), non-small cell lung cancer (NSCLC), as well as bladder, ovarian and pancreatic cancers. The concentration ranges selected for each drug and investigational agent were based upon clinically achievable concentrations if the clinical Cmax of the agent was known.
Compounds. The drugs and compounds olaparib (NSC753686), talazoparib (NSC767125), berzosertib (NSC777718), elimusertib (NSC800525), nedisertib (NSC802822), VX-984 (NSC792969), AZD-1390 (NSC803789), temozolomide (NSC362856), topotecan (NSC609699), trabectedin (NSC813783), staurosporine (NSC755774), and gemcitabine (NSC613327) were obtained from the National Cancer Institute (NCI) Developmental Therapeutics Program Chemical Repository. The FDA-approved anticancer drug set is available from the Developmental Therapeutics Program at https://dtp.cancer.gov/organization/dscb/obtaining/available_plates.htm. […] The stock solutions were prepared in dimethyl sulfoxide (DMSO, Sigma-Aldrich, St. Louis, MO, cat. D2650) at 400-fold the tested concentration and stored at -70 degrees C. Prior to their use, the stock solutions were diluted in fresh medium and the final DMSO concentration in the assay was 0.25% (v/v). All drugs and investigational agents were tested over a range starting from a high concentration at or near the clinical Cmax and decreasing in half-log increments. If the clinical Cmax for an agent had not been determined, the highest concentration tested was 10 microM.
Cell Lines. The patient-derived cancer cell (PDC) lines: 156681-154-R-J1-PDC, 283228-195-R-J1-PDC, 287954-098-R-J1-PDC, 292921-168-R-J2-PDC, 349418-098-R-PDC, 425362-245-T-J1-PDC, 556581-035-R-J1-PDC, and BL0293-F563-PDC were received from the NCI Patient-Derived Models Repository (PDMR, https://pdmr.cancer.gov). The established cell lines HS-SY-2 (RRID:CVCL_8719), MPNST, and SYO-1 (RRID:CVCL_7146) were obtained from the Sloan Kettering Institute. The alveolar soft parts sarcoma cell line ASPS-1 (RRID:CVCL_S738) was established at the NCI and grown from internal seed stocks. The following established cell lines were purchased from the American Type Culture Collection (ATCC, Manassas, VA): G-401 (ATCC, cat. CRL-1441, RRID:CVCL_0270), SW982 (ATCC, cat. HTB-93, RRID:CVCL_1734), VA-ES-BJ (ATCC, cat. CRL-2138, RRID:CVCL_1785), NCI-H719 (ATCC, cat. CRL-5837, RRID:CVCL_1582), NCI-H196 (ATCC, cat. CRL-5823, RRID:CVCL_1509), NCI-H841 (ATCC, cat. CRL-5845, RRID:CVCL_1595), NCI-H1618 (ATCC, cat. CRL-5879, RRID:CVCL_1480), NCI-H1876 (ATCC, cat. CRL-5902, RRID:CVCL_1503), DMS 114 (ATCC, cat. CRL-2066; RRID:CVCL_1174), NCI-H211 (ATCC, cat. CRL-5824; RRID:CVCL_1529), and SW 1271 (ATCC, cat. CRL-2177, RRID:CVCL_1716). The small cell lung cancer cell line COR-L88 was purchased from Sigma-Aldrich (cat. 92031917-1VL, RRID:CVCL_1141). The non-small cell lung cancer cell lines NCI-H226 (RRID:CVCL_1544) and NCI-H322M (RRID:CVCL_1557) were established at the NCI and grown from internal seed stocks. Pooled donor human umbilical vein endothelial cells (HUVEC, Lonza, cat. CC-2519) and human mesenchymal stem cells (hMSC, Lonza, cat. PT-2501) were purchased from Lonza (Walkersville, MD).
Cell Culture. All cells were maintained in an incubator at 37 degrees C and 5% CO2 with 95% humidity. […]

[1] = second compound 0.003 µM, first compound 0.0949 µM
[2] = second compound 0.003 µM, first compound 0.3 µM
[3] = second compound 0.003 µM, first compound 0.949 µM
[4] = second compound 0.003 µM, first compound 3 µM
[5] = second compound 0.00949 µM, first compound 0.0949 µM
[6] = second compound 0.00949 µM, first compound 0.3 µM
[7] = second compound 0.00949 µM, first compound 0.949 µM
[8] = second compound 0.00949 µM, first compound 3 µM
[9] = second compound 0.03 µM, first compound 0.0949 µM
[10] = second compound 0.03 µM, first compound 0.3 µM
[11] = second compound 0.03 µM, first compound 0.949 µM
[12] = second compound 0.03 µM, first compound 3 µM
[13] = second compound 0.0949 µM, first compound 0.0949 µM
[14] = second compound 0.0949 µM, first compound 0.3 µM
[15] = second compound 0.0949 µM, first compound 0.949 µM
[16] = second compound 0.0949 µM, first compound 3 µM
[17] = second compound 0.3 µM, first compound 0.0949 µM
[18] = second compound 0.3 µM, first compound 0.3 µM
[19] = second compound 0.3 µM, first compound 0.949 µM
[20] = second compound 0.3 µM, first compound 3 µM
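Further: spheroids exposed to compounds for 7 days before readout.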
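Wherever viability, T/C is given: percent of vehicle control viability where 100% = DMSO-treated spheroids.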

Compound `Cn1ncnc1[C@H]1c2n[nH]c(=O)c3cc(F)cc(c23)N[C@@H]1c1ccc(F)cc1` + CC[C@@]1(O)C(=O)OCc2c1cc1n(c2=O)Cc2cc3c(CN(C)C)c(O)ccc3nc2-1 has an IC50 (second compound 0.003 µM) of 871 nM, an IC50 (second compound 0.00949 µM) of 207 nM and an IC50 (second compound 0.03 µM) of less than 9.49 nM. The IC50 (second compound 0.0949 µM) was less than 9.49 nM, the IC50 (second compound 0.3 µM) was less than 9.49 nM and the viability, T/C (second compound 0.003 µM, first compound 0.00949 µM) was 87.1%. It also gave a viability, T/C (second compound 0.003 µM, first compound 0.03 µM) of 102%, a viability, T/C [1] of 82.5% and a viability, T/C [2] of 77.3%. The viability, T/C [3] was 47.8%, the viability, T/C [4] was 8.02% and the viability, T/C (second compound 0.00949 µM, first compound 0.00949 µM) was 58.8%. It also gave a viability, T/C (second compound 0.00949 µM, first compound 0.03 µM) of 65.9%, a viability, T/C [5] of 48.8% and a viability, T/C [6] of 50%. The viability, T/C [7] was 21.2%, the viability, T/C [8] was 9.62% and the viability, T/C (second compound 0.03 µM, first compound 0.00949 µM) was 33.5%. It also gave a viability, T/C (second compound 0.03 µM, first compound 0.03 µM) of 28.7%, a viability, T/C [9] of 22.1% and a viability, T/C [10] of 18.2%. It also gave a viability, T/C [11] of 15.2%, a viability, T/C [12] of 6.77% and a viability, T/C (second compound 0.0949 µM, first compound 0.00949 µM) of 29.5%. It also gave a viability, T/C (second compound 0.0949 µM, first compound 0.03 µM) of 33.4%, a viability, T/C [13] of 32.7% and a viability, T/C [14] of 31.2%. It also gave a viability, T/C [15] of 24.9%, a viability, T/C [16] of 10.6% and a viability, T/C (second compound 0.3 µM, first compound 0.00949 µM) of 41.8%. For the same compound, the viability, T/C (second compound 0.3 µM, first compound 0.03 µM) was 43.8%, the viability, T/C [17] was 47.8% and the viability, T/C [18] was 43.3%. The viability, T/C [19] was 44% and the viability, T/C [20] was 24.6%.

`O=C(c1cc(Cc2n[nH]c(=O)c3ccccc23)ccc1F)N1CCN(C(=O)C2CC2)CC1` + CC[C@@]1(O)C(=O)OCc2c1cc1n(c2=O)Cc2cc3c(CN(C)C)c(O)ccc3nc2-1 was tested, and the IC50 (second compound 0.003 µM) was 21300 nM, the IC50 (second compound 0.00949 µM) was 14800 nM and the IC50 (second compound 0.03 µM) was less than 94.9 nM. For the same compound, the IC50 (second compound 0.0949 µM) was less than 94.9 nM, the IC50 (second compound 0.3 µM) was less than 94.9 nM and the viability, T/C [1] was 103%. The viability, T/C [2] was 80.6%, the viability, T/C [3] was 74.2% and the viability, T/C [4] was 74.5%. For the same compound, the viability, T/C (second compound 0.003 µM, first compound 9.49 µM) was 63%, the viability, T/C (second compound 0.003 µM, first compound 30 µM) was 42.1% and the viability, T/C [5] was 59.1%. The viability, T/C [6] was 64.2%, the viability, T/C [7] was 76.7% and the viability, T/C [8] was 62.6%. The viability, T/C (second compound 0.00949 µM, first compound 9.49 µM) was 62%, the viability, T/C (second compound 0.00949 µM, first compound 30 µM) was 31.2% and the viability, T/C [9] was 38.4%. The viability, T/C [10] was 41.1%, the viability, T/C [11] was 36.7% and the viability, T/C [12] was 29.8%. The viability, T/C (second compound 0.03 µM, first compound 9.49 µM) was 15.3%, the viability, T/C (second compound 0.03 µM, first compound 30 µM) was 15.5% and the viability, T/C [13] was 33.5%. For the same compound, the viability, T/C [14] was 35.5%, the viability, T/C [15] was 33% and the viability, T/C [16] was 25.7%. For the same compound, the viability, T/C (second compound 0.0949 µM, first compound 9.49 µM) was 21.7%, the viability, T/C (second compound 0.0949 µM, first compound 30 µM) was 9.48% and the viability, T/C [17] was 46%. The viability, T/C [18] was 46.4%, the viability, T/C [19] was 46.6% and the viability, T/C [20] was 46.2%. For the same compound, the viability, T/C (second compound 0.3 µM, first compound 9.49 µM) was 42.3% and the viability, T/C (second compound 0.3 µM, first compound 30 µM) was 13.3%.
